Reference: patent US20090291964A1, “Potentiators of Antibacterial Activity” (priority 2003, published 2009)

Tests used:
Type in all cases: cell-based
B. subtilis = test: MIC of EtBr in presence and absence of EPI; settings: B. subtilis wild type, EPI up to 100 μg/ml, data not shown
Description: (§1) EtBr is a general substrate for many different efflux pumps in bacteria. Markham et al., “Multiple Novel Inhibitors of the NorA Multidrug Transporter of Staphylococcus aureus”, Antimicrob. Agents Chemother. 43:2404-2408 (1999). Since EtBr is a non-specific DNA intercalator, the only known mechanism of resistance to EtBr is via efflux. Markham et al., “Multiple Novel Inhibitors of the NorA Multidrug Transporter of Staphylococcus aureus”, Antimicrob. Agents Chemother. 43:2404-2408 (1999).

[1] = system: permeability mutant strains of E. coli; test: MIC of EtBr in presence and absence of EPI
Description: as §1

[2] = system: wild type gram negative organisms (E. coli, P. aeruginosa, and H. influenzae); test: MIC of EtBr in presence and absence of EPI; settings: all wild type gram-negative organisms, compared with gram-positive
Description: as §1

[3] = system: E. faecalis clinical isolates; test: MIC90 studies: fluoroquinolone susceptibility of clinical isolate panel with EPI; settings: EPI at 50 μg/ml
Description: (§2) Susceptibility studies with large panels of resistant clinical isolates were performed at Focus Technologies, Herndon, Va. according to NCCLS protocols (National Committee for Clinical Laboratory Standards, supra).
(§3) To be useful in combination therapy, an EPI needs to substantially reduce the MIC of an antibiotic to within the range of clinical susceptibility. Because many different resistance mechanisms are often present in clinical isolates, including the likelihood of multiple target-based mutations in addition to efflux mutations, the barrier to antibiotic efficacy is much greater. […] Oxacillin and vancomycin MICs were also determined to identify which isolates were methicillin-resistant (S. aureus) and vancomycin-resistant (E. faecalis).

[4] = system: S. aureus clinical isolates; test: as above; settings: EPI at 50 μg/ml
Description: as §2, §3

[5] = E. faecalis clinical isolate 10
[6] = E. faecalis clinical isolate 11
[7] = E. faecalis clinical isolate 12
[8] = E. faecalis clinical isolate 13
[9] = E. faecalis clinical isolate 14
[10] = E. faecalis clinical isolate 15
[11] = E. faecalis clinical isolate 16
[12] = E. faecalis clinical isolate 17
[13] = E. faecalis clinical isolate 18
[14] = E. faecalis clinical isolate 19
[15] = E. faecalis clinical isolate 20
[16] = E. faecalis clinical isolate 21
[17] = E. faecalis clinical isolate 22
[18] = E. faecalis clinical isolate 23
[19] = E. faecalis clinical isolate 24
[20] = E. faecalis clinical isolate 25
[21] = E. faecalis clinical isolate 26

COc1cc(C(=O)C(=O)N(C)[C@@H](Cc2ccc(Cl)cc2)C(=O)N(Cc2ccccc2)C(CCc2ccncc2)CCc2ccncc2)cc(OC)c1OC [C-9, (S)—N-Benzyl-2-(methyl-(2-oxo-2-(3,4,5-trimethoxyphenyl)acetyl)amino)-3-(4-chloro-phenyl)-N-(3-pyridin-4-yl-1-(2-pyridin-4-yl-ethyl)propyl)propionamide]
reduction of the MIC of EtBr (B. subtilis): 8 fold
efflux inhibitory activity [1]: some efflux inhibitory activity was observed
activity against efflux of EtBr [2]: much less active
Ciprofloxacin MIC with EPI ([3]; E. faecalis clinical isolate 1): 1 µg/mL
Norfloxacin MIC with EPI ([3]; E. faecalis clinical isolate 1): 2 µg/mL
Ciprofloxacin MIC with EPI ([3]; E. faecalis clinical isolate 2): 1 µg/mL
Norfloxacin MIC with EPI ([3]; E. faecalis clinical isolate 2): 2 µg/mL
Ciprofloxacin MIC with EPI ([3]; E. faecalis clinical isolate 3): 64 µg/mL
Norfloxacin MIC with EPI ([3]; E. faecalis clinical isolate 3): 128 µg/mL
Ciprofloxacin MIC with EPI ([3]; E. faecalis clinical isolate 4): 64 µg/mL
Norfloxacin MIC with EPI ([3]; E. faecalis clinical isolate 4): 128 µg/mL
Ciprofloxacin MIC with EPI ([3]; E. faecalis clinical isolate 5): 64 µg/mL
Norfloxacin MIC with EPI ([3]; E. faecalis clinical isolate 5): 64 µg/mL
Ciprofloxacin MIC with EPI ([3]; E. faecalis clinical isolate 6): 1 µg/mL
Norfloxacin MIC with EPI ([3]; E. faecalis clinical isolate 6): 8 µg/mL
Ciprofloxacin MIC with EPI ([3]; E. faecalis clinical isolate 7): 1 µg/mL
Norfloxacin MIC with EPI ([3]; E. faecalis clinical isolate 7): 2 µg/mL
Ciprofloxacin MIC with EPI ([3]; E. faecalis clinical isolate 8): 32 µg/mL
Norfloxacin MIC with EPI ([3]; E. faecalis clinical isolate 8): 128 µg/mL
Ciprofloxacin MIC with EPI ([3]; E. faecalis clinical isolate 9): 1 µg/mL
Norfloxacin MIC with EPI ([3]; E. faecalis clinical isolate 9): 2 µg/mL
Ciprofloxacin MIC with EPI [3, 5]: 64 µg/mL
Norfloxacin MIC with EPI [3, 5]: 64 µg/mL
Ciprofloxacin MIC with EPI [3, 6]: 32 µg/mL
Norfloxacin MIC with EPI [3, 6]: 64 µg/mL
Ciprofloxacin MIC with EPI [3, 7]: 1 µg/mL
Norfloxacin MIC with EPI [3, 7]: 2 µg/mL
Ciprofloxacin MIC with EPI [3, 8]: 0.5 µg/mL
Norfloxacin MIC with EPI [3, 8]: 2 µg/mL
Ciprofloxacin MIC with EPI [3, 9]: 0.5 µg/mL
Norfloxacin MIC with EPI [3, 9]: 2 µg/mL
Ciprofloxacin MIC with EPI [3, 10]: 2 µg/mL
Norfloxacin MIC with EPI [3, 10]: 4 µg/mL
Ciprofloxacin MIC with EPI [3, 11]: 1 µg/mL
Norfloxacin MIC with EPI [3, 11]: 4 µg/mL
Ciprofloxacin MIC with EPI [3, 12]: 1 µg/mL
Norfloxacin MIC with EPI [3, 12]: 2 µg/mL
Ciprofloxacin MIC with EPI [3, 13]: 64 µg/mL
Norfloxacin MIC with EPI [3, 13]: 128 µg/mL
Ciprofloxacin MIC with EPI [3, 14]: 1 µg/mL
Norfloxacin MIC with EPI [3, 14]: 4 µg/mL
Ciprofloxacin MIC with EPI [3, 15]: 1 µg/mL
Norfloxacin MIC with EPI [3, 15]: 2 µg/mL
Ciprofloxacin MIC with EPI [3, 16]: 1 µg/mL
Norfloxacin MIC with EPI [3, 16]: 4 µg/mL
Ciprofloxacin MIC with EPI [3, 17]: 64 µg/mL
Norfloxacin MIC with EPI [3, 17]: 128 µg/mL
Ciprofloxacin MIC with EPI [3, 18]: 32 µg/mL
Norfloxacin MIC with EPI [3, 18]: 64 µg/mL
Ciprofloxacin MIC with EPI [3, 19]: 32 µg/mL
Norfloxacin MIC with EPI [3, 19]: 64 µg/mL
Ciprofloxacin MIC with EPI [3, 20]: 64 µg/mL
Norfloxacin MIC with EPI [3, 20]: 128 µg/mL
Ciprofloxacin MIC with EPI [3, 21]: 64 µg/mL
Norfloxacin MIC with EPI [3, 21]: 128 µg/mL
trend in the reduction of MICs for ciprofloxacin and norfloxacin ([3]; E. faecalis isolates, Table 5B): less apparent
decrease in MIC of ciprofloxacin and norfloxacin ([4]; S. aureus isolates): no significant (>2-fold) decrease in MIC
Ciprofloxacin MIC with EPI ([4]; S. aureus clinical isolate 1): 1 µg/mL
Norfloxacin MIC with EPI ([4]; S. aureus clinical isolate 1): 8 µg/mL
Ciprofloxacin MIC with EPI ([4]; S. aureus clinical isolate 2): 0.5 µg/mL
Norfloxacin MIC with EPI ([4]; S. aureus clinical isolate 2): 1 µg/mL
Ciprofloxacin MIC with EPI ([4]; S. aureus clinical isolate 3): 1 µg/mL
Norfloxacin MIC with EPI ([4]; S. aureus clinical isolate 3): 4 µg/mL
Ciprofloxacin MIC with EPI ([4]; S. aureus clinical isolate 4): 64 µg/mL
Norfloxacin MIC with EPI ([4]; S. aureus clinical isolate 4): 128 µg/mL
Ciprofloxacin MIC with EPI ([4]; S. aureus clinical isolate 5): 1 µg/mL
Norfloxacin MIC with EPI ([4]; S. aureus clinical isolate 5): 2 µg/mL
Ciprofloxacin MIC with EPI ([4]; S. aureus clinical isolate 6): 32 µg/mL
Norfloxacin MIC with EPI ([4]; S. aureus clinical isolate 6): 128 µg/mL
Ciprofloxacin MIC with EPI ([4]; S. aureus clinical isolate 7): 0.5 µg/mL
Norfloxacin MIC with EPI ([4]; S. aureus clinical isolate 7): 2 µg/mL
Ciprofloxacin MIC with EPI ([4]; S. aureus clinical isolate 8): 1 µg/mL
Norfloxacin MIC with EPI ([4]; S. aureus clinical isolate 8): 4 µg/mL
Ciprofloxacin MIC with EPI ([4]; S. aureus clinical isolate 9): 1 µg/mL
Norfloxacin MIC with EPI ([4]; S. aureus clinical isolate 9): 4 µg/mL
Ciprofloxacin MIC with EPI ([4]; S. aureus clinical isolate 10): 16 µg/mL
Norfloxacin MIC with EPI ([4]; S. aureus clinical isolate 10): 64 µg/mL
Ciprofloxacin MIC with EPI ([4]; S. aureus clinical isolate 11): 32 µg/mL
Norfloxacin MIC with EPI ([4]; S. aureus clinical isolate 11): 64 µg/mL
Ciprofloxacin MIC with EPI ([4]; S. aureus clinical isolate 12): 0.25 µg/mL
Norfloxacin MIC with EPI ([4]; S. aureus clinical isolate 12): 1 µg/mL
Ciprofloxacin MIC with EPI ([4]; S. aureus clinical isolate 13): 64 µg/mL
Norfloxacin MIC with EPI ([4]; S. aureus clinical isolate 13): 128 µg/mL
Ciprofloxacin MIC with EPI ([4]; S. aureus clinical isolate 14): 64 µg/mL
Norfloxacin MIC with EPI ([4]; S. aureus clinical isolate 14): 128 µg/mL
Ciprofloxacin MIC with EPI ([4]; S. aureus clinical isolate 15): >64 µg/mL
Norfloxacin MIC with EPI ([4]; S. aureus clinical isolate 15): 256 µg/mL
